According to PMC6332318, “Synthetic Development of New 3-(4-Arylmethylamino)butyl-5-arylidene-rhodanines under Microwave Irradiation and Their Effects on Tumor Cell Lines and against Protein Kinases” (Molecules, 2015):

Columns and labels:
[1] = test system: Caco 2 cells (differentiating colorectal adenocarcinoma); experiment: in vitro inhibition of cell proliferation / survival assay; format: cell-based; conditions: Homo sapiens; for viability at 25 µM: measured at 25 μM after 48 h, single dose, triplicate
Method: (§1) As an initial effort to investigate their in vitro bioactivity, the new synthesized 3-(4-arylmethylamino)butyl-2-thioxo-1,3-thiazolidine-4-one 9a–n and also their precursors 6a–f were evaluated for their in vitro inhibition of cell proliferation. For this study, we used a panel of seven representative tumoral cell lines, namely HuH7 D12 (differential hepato cellular carcinoma), Caco 2 (differentiating colorectal adenocarcinoma), MDA-MBD231 ([…]), HCT 116 (actively proliferating colorectal adenocarcinoma), PC3 (prostate carcinoma), NCI-H727 (lung carcinoma), HaCat keratinocyte and, diploid skin fibroblasts as normal cell lines for control.
(§2) Skin diploid fibroblastic cells were provided by BIOPREDIC International Company (Rennes, France). Caco2 (Ref ECACC: 86010202), Huh-7D12 (Ref ECACC: 01042712), MDA-MB-231 (Ref ECACC: 92020424), HCT-116 (Ref ECACC: 91091005), PC3 (Ref ECACC: 90112714), NCI-H727 (Ref ECACC: 94060303) cell lines were obtained from the ECACC collection and HaCaT (from Cell Lines Service, Eppelheim, Germany). Cells were grown according to ECACC recommendations. The toxicity test of the compounds on these cells was as follows: 2 × 10^3 cells for HCT-116 cells or 4 × 10^3 for the other cells were seeded in 96 multiwell plates in triplicate and left for 24 h for attachment, spreading and growing. Then, cells were exposed for 48 h to increasing concentrations of the compounds, ranging from 0.1 to 25 μM in a final volume of 120 μL of culture medium. Cells were fixed in cooled solution of 90% ethanol/5% acetic acid, nuclei were stained with Hoechst 3342 (Sigma) and counted using automated imaging analysis (Cellomics Arrayscan VTI/HCS Reader, Thermo/Scientific, Waltham, MA, USA). The IC50 were graphically determined.

[2] = test system: HCT 116 cells (actively proliferating colorectal adenocarcinoma); experiment: as above; format: cell-based; conditions: Homo sapiens; for viability at 25 µM: measured at 25 μM after 48 h, single dose, triplicate
Method: as §1, §2

[3] = test system: HaCat keratinocyte; experiment: as above; format: cell-based; conditions: Homo sapiens; for viability at 25 µM: measured at 25 μM after 48 h, single dose, triplicate
Method: as §1, §2

[4] = test system: Huh7 D12 cells (differential hepato cellular carcinoma); experiment: as above; format: cell-based; conditions: for viability at 25 µM: Huh-7D12, measured at 25 μM after 48 h, single dose, triplicate
Method: as §1, §2

[5] = test system: MDA-MB231 cells; experiment: as above; format: cell-based; conditions: Homo sapiens; for viability at 25 µM: MDA-MB-231, measured at 25 μM after 48 h, single dose, triplicate
Method: as §1, §2

[6] = test system: NCI-H727 cells (lung carcinoma); experiment: as above; format: cell-based; conditions: Homo sapiens, NCI-H727; for viability at 25 µM: measured at 25 μM after 48 h, single dose, triplicate, read-out: % of Survival
Method: as §1, §2

[7] = test system: PC3 cells (prostate carcinoma); experiment: as above; format: cell-based; conditions: Homo sapiens; for viability at 25 µM: PC-3, measured at 25 μM after 48 h, single dose, triplicate
Method: as §1, §2

[8] = test system: diploid skin fibroblasts; experiment: in vitro inhibition of cell proliferation / survival assay, normal cells control; format: cell-based; conditions: Skin fibroblast, Fibroblasts; for viability at 25 µM: measured at 25 μM after 48 h, single dose, triplicate, read-out: % of Survival
Method: as §1, §2

[9] = test system: panel of seven representative tumoral cell lines; experiment: in vitro inhibition of cell proliferation, whole panel; format: cell-based; conditions: all cell lines of the panel, without selectivity; read-out: IC50, moderate antitumor activities in all cell lines of the panel
Method: as §1
as §2, with “The toxicity test of the compounds on these cells was as follows: 2 × 10^3 cells for HCT-116 cells or 4 × 10^3 for the other cells were seeded in 96 multiwell plates in triplicate and left for 24 h for attachment, spreading and growing. Then, cells were exposed for 48 h to increasing concentrations of the compounds, ranging from 0.1 to 25 μM in a final volume of 120 μL of culture medium.” left out

[10] = 48 h, average of three assays, standard error ± 0.5 μM

| SMILES | IC50 [1, 10] | viability at 25 µM [1] | IC50 [2, 10] | viability at 25 µM [2] | IC50 ([3]; HaCaT, 48 h, average of three assays, standard error ± 0.5 μM) | viability at 25 µM [3] | IC50 ([4]; Huh-7D12, 48 h, average of three assays, standard error ± 0.5 μM) | viability at 25 µM [4] | IC50 ([5]; MDA-MB-231, 48 h, average of three assays, standard error ± 0.5 μM) | viability at 25 µM [5] | IC50 [6, 10] | viability at 25 µM [6] | IC50 ([7]; PC-3, 48 h, average of three assays, standard error ± 0.5 μM) | viability at 25 µM [7] | IC50 [8, 10] | viability at 25 µM [8] | IC50 [9] | melting point |
| --- | --- | --- | --- | --- | --- | --- | --- | --- | --- | --- | --- | --- | --- | --- | --- | --- | --- | --- |
| COc1ccc(CNCCCCN2C(=O)/C(=C/c3ccc(O)c(OC)c3)SC2=S)cc1 [Compound 9d, (5Z)3-[4-(4-Methoxyphenylmethylamino)butyl]-5-(4-hydroxy-3-methoxybenzylidene)-2-thioxo-1,3-thiazolidin-4-one] | 15 µM | 23% | 10 µM | 1% | 10 µM | 2% | 10 µM | 7% | 11 µM | 15% | 10 µM | 11% | 17 µM | 41% | > 25 µM | 29% | 10 to 17 µM | 191 to 193 °C |
| COc1ccc(CNCCCCN2C(=O)/C(=C/c3ccc4c(c3)OCCO4)SC2=S)cc1 [Compound 9c, (5Z)3-[4-(4-Methoxyphenylmethylamino)butyl]-5-(2,3-dihydro-1,4-benzodioxin-6-ylmethylene)-2-thioxo-1,3-thiazolidin-4-one] | – | 93% | – | 97% | – | 101% | – | 88% | – | 92% | – | 95% | – | 97% | – | 102% | – | 255 to 261 °C |
| COc1ccc(CNCCCCN2C(=O)/C(=C/c3ccc4c(c3)OCO4)SC2=S)cc1 [Compound 9a, (5Z)3-[4-(4-Methoxyphenylmethylamino)butyl]-5-(1,3-benzodioxol-5-ylmethylene)-2-thioxo-1,3-thiazolidin-4-one] | – | 109% | – | 109% | – | 103% | – | 85% | – | 100% | – | 104% | – | 92% | – | 104% | – | 170 to 229 °C (dec.) |
| COc1cccc(CNCCCCN2C(=O)/C(=C/c3ccc4c(c3)OCCO4)SC2=S)c1 [Compound 9f, (5Z)3-[4-(3-Methoxyphenylmethylamino)butyl]-5-(2,3-dihydro-1,4-benzodioxin-6-ylmethylene)-2-thioxo-1,3-thiazolidin-4-one] | – | 110% | – | 113% | – | 100% | – | 102% | – | 98% | – | 96% | – | 98% | – | 134% | – | 247 to 251 °C |
